{
  "source": "PubChem BioAssay AID272",
  "about": "(DTP/NCI, 2004)",
  "system": "Lewis lung carcinoma i.m., BDF1 mice, T/C %",
  "test": "NCI In Vivo Anticancer Drug Screen. Data for tumor model Lewis Lung Carcinoma (intramuscular) in B6D2F1 (BDF1) mice",
  "outline": "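Tumour-bearing mice were dosed with compound, and either their survival or their tumour size was measured. Results were expressed relative to vehicle-treated controls as T/C.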",
  "note": "Values joined by “and” are separate entries in the source; they are usually repeats but may differ in a detail not shown here. Equal values may be shown once. Records with an inconclusive call do not appear.",
  "data": [
    {"compound": "CS(=O)(=O)OCCCNCCCOS(C)(=O)=O", "values": [
      {"measurement": "T/C", "setting": "endpoint: median survival time, dose: 10.0 mg/kg/injection, schedule: Q01DX011 (ip), vehicle: saline, higher = longer survival", "result": "110 % of control and 113 % of control and 119 % of control"},
      {"measurement": "T/C", "setting": "endpoint: median survival time, dose: 20.0 mg/kg/injection, schedule: Q01DX011 (ip), vehicle: saline, higher = longer survival", "result": "109 % of control"},
      {"measurement": "T/C", "setting": "endpoint: median survival time, dose: 40.0 mg/kg/injection, schedule: Q01DX011 (ip), vehicle: saline, higher = longer survival", "result": "92 % of control and 107 % of control"}
    ]},
    {"compound": "Cc1nc(N)nc(N)c1-c1ccc(Cl)c(Cl)c1", "values": [
      {"measurement": "T/C", "setting": "endpoint: mean tumor weight, dose: 6.0 mg/kg/injection, schedule: Q04DX004 (ip), vehicle: saline, higher = larger tumour", "result": "180 % of control"},
      {"measurement": "T/C", "setting": "endpoint: median survival time, dose: 4.0 mg/kg/injection, schedule: Q04DX004 (ip), vehicle: saline, higher = longer survival", "result": "100 % of control"},
      {"measurement": "T/C", "setting": "endpoint: median survival time, dose: 8.0 mg/kg/injection, schedule: Q04DX004 (ip), vehicle: saline, higher = longer survival", "result": "116 % of control"}
    ]},
    {"compound": "CO[C@@]12[C@H](COC(N)=O)C3=C(C(=O)C(C)=C(N)C3=O)N1C[C@@H]1N[C@@H]12", "values": [
      {"measurement": "T/C", "setting": "endpoint: mean tumor weight, dose: 0.5 mg/kg/injection, schedule: Q01DX005 (ip), vehicle: other, higher = larger tumour", "result": "101 % of control"},
      {"measurement": "T/C", "setting": "endpoint: mean tumor weight, dose: 1.0 mg/kg/injection, schedule: Q01DX005 (ip), vehicle: other, higher = larger tumour", "result": "82 % of control"},
      {"measurement": "T/C", "setting": "endpoint: mean tumor weight, dose: 2.0 mg/kg/injection, schedule: Q01DX005 (ip), vehicle: other, higher = larger tumour", "result": "75 % of control"},
      {"measurement": "T/C", "setting": "endpoint: median survival time, dose: 0.25 mg/kg/injection, schedule: Q01DX009 (ip), vehicle: Klucel (hydroxypropylcellulose) (HPC), higher = longer survival", "result": "86 % of control and 112 % of control"},
      {"measurement": "T/C", "setting": "endpoint: median survival time, dose: 0.25 mg/kg/injection, schedule: Q01DX011 (ip), vehicle: saline, higher = longer survival", "result": "112 % of control"},
      {"measurement": "T/C", "setting": "endpoint: median survival time, dose: 0.5 mg/kg/injection, schedule: Q01DX005 (ip), vehicle: other, higher = longer survival", "result": "90 % of control"},
      {"measurement": "T/C", "setting": "endpoint: median survival time, dose: 0.5 mg/kg/injection, schedule: Q01DX005 (ip), vehicle: saline, higher = longer survival", "result": "107 % of control"},
      {"measurement": "T/C", "setting": "endpoint: median survival time, dose: 0.5 mg/kg/injection, schedule: Q01DX009 (ip), vehicle: Klucel (hydroxypropylcellulose) (HPC), higher = longer survival", "result": "101 % of control and 110 % of control"},
      {"measurement": "T/C", "setting": "endpoint: median survival time, dose: 0.5 mg/kg/injection, schedule: Q01DX011 (ip), vehicle: saline, higher = longer survival", "result": "114 % of control"},
      {"measurement": "T/C", "setting": "endpoint: median survival time, dose: 1.0 mg/kg/injection, schedule: Q01DX005 (ip), vehicle: saline, higher = longer survival", "result": "90 % of control"},
      {"measurement": "T/C", "setting": "endpoint: median survival time, dose: 1.0 mg/kg/injection, schedule: Q01DX009 (ip), vehicle: Klucel (hydroxypropylcellulose) (HPC), higher = longer survival", "result": "97 % of control"},
      {"measurement": "T/C", "setting": "endpoint: median survival time, dose: 1.0 mg/kg/injection, schedule: Q01DX011 (ip), vehicle: water, higher = longer survival", "result": "86 % of control"},
      {"measurement": "T/C", "setting": "endpoint: median survival time, dose: 2.0 mg/kg/injection, schedule: Q01DX005 (ip), vehicle: other, higher = longer survival", "result": "114 % of control"},
      {"measurement": "T/C", "setting": "endpoint: median tumor weight (est.), dose: 0.5 mg/kg/injection, schedule: Q01DX005 (ip), vehicle: saline, higher = larger tumour", "result": "64 % of control"},
      {"measurement": "T/C", "setting": "endpoint: median tumor weight (est.), dose: 1.0 mg/kg/injection, schedule: Q01DX005 (ip), vehicle: saline, higher = larger tumour", "result": "78 % of control"}
    ]},
    {"compound": "C1OC1CN1CCN(CC2CO2)CC1", "note": "(stereo not given)", "values": [
      {"measurement": "T/C", "setting": "endpoint: mean tumor weight (est.), dose: 1.0 mg/kg/injection, schedule: Q01DX011 (ip), vehicle: saline, higher = larger tumour", "result": "83 % of control"},
      {"measurement": "T/C", "setting": "endpoint: mean tumor weight (est.), dose: 2.0 mg/kg/injection, schedule: Q01DX011 (ip), vehicle: saline, higher = larger tumour", "result": "65 % of control"},
      {"measurement": "T/C", "setting": "endpoint: mean tumor weight (est.), dose: 4.0 mg/kg/injection, schedule: Q01DX011 (ip), vehicle: saline, higher = larger tumour", "result": "74 % of control"},
      {"measurement": "T/C", "setting": "endpoint: mean tumor weight (est.), dose: 8.0 mg/kg/injection, schedule: Q01DX011 (ip), vehicle: saline, higher = larger tumour", "result": "71 % of control"},
      {"measurement": "T/C", "setting": "endpoint: mean tumor weight (est.), dose: 16.0 mg/kg/injection, schedule: Q01DX011 (ip), vehicle: saline, higher = larger tumour", "result": "63 % of control"},
      {"measurement": "T/C", "setting": "endpoint: median survival time, dose: 2.0 mg/kg/injection, schedule: Q01DX011 (ip), vehicle: saline, higher = longer survival", "result": "96 % of control"},
      {"measurement": "T/C", "setting": "endpoint: median survival time, dose: 4.0 mg/kg/injection, schedule: Q01DX011 (ip), vehicle: saline, higher = longer survival", "result": "105 % of control"},
      {"measurement": "T/C", "setting": "endpoint: median survival time, dose: 16.0 mg/kg/injection, schedule: Q01DX011 (ip), vehicle: saline, higher = longer survival", "result": "106 % of control"}
    ]},
    {"compound": "COc1cc(OC)c(OC)cc1/C=C\\c1ccnc2ccccc12", "values": [
      {"measurement": "T/C", "setting": "endpoint: mean tumor weight (est.), dose: 50.0 mg/kg/injection, schedule: Q01DX011 (ip), vehicle: saline with Tween-80, higher = larger tumour", "result": "60 % of control"},
      {"measurement": "T/C", "setting": "endpoint: mean tumor weight (est.), dose: 100.0 mg/kg/injection, schedule: Q01DX011 (ip), vehicle: saline with Tween-80, higher = larger tumour", "result": "51 % of control"},
      {"measurement": "T/C", "setting": "endpoint: mean tumor weight (est.), dose: 200.0 mg/kg/injection, schedule: Q01DX011 (ip), vehicle: saline with Tween-80, higher = larger tumour", "result": "56 % of control"},
      {"measurement": "T/C", "setting": "endpoint: mean tumor weight (est.), dose: 400.0 mg/kg/injection, schedule: Q01DX011 (ip), vehicle: saline with Tween-80, higher = larger tumour", "result": "34 % of control"},
      {"measurement": "T/C", "setting": "endpoint: median survival time, dose: 50.0 mg/kg/injection, schedule: Q01DX011 (ip), vehicle: saline with Tween-80, higher = longer survival", "result": "105 % of control"},
      {"measurement": "T/C", "setting": "endpoint: median survival time, dose: 100.0 mg/kg/injection, schedule: Q01DX011 (ip), vehicle: saline with Tween-80, higher = longer survival", "result": "103 % of control"},
      {"measurement": "T/C", "setting": "endpoint: median survival time, dose: 200.0 mg/kg/injection, schedule: Q01DX011 (ip), vehicle: saline with Tween-80, higher = longer survival", "result": "86 % of control"},
      {"measurement": "T/C", "setting": "endpoint: median survival time, dose: 400.0 mg/kg/injection, schedule: Q01DX011 (ip), vehicle: saline with Tween-80, higher = longer survival", "result": "100 % of control"}
    ]},
    {"compound": "CC(=O)[O][Hg][c]1s[c]([Hg][O]C(C)=O)[c]([Hg][O]C(C)=O)[c]1[Hg][O]C(C)=O", "values": [
      {"measurement": "T/C", "setting": "endpoint: mean tumor weight (est.), dose: 6.25 mg/kg/injection, schedule: Q01DX011 (ip), vehicle: saline, higher = larger tumour", "result": "45 % of control"},
      {"measurement": "T/C", "setting": "endpoint: mean tumor weight (est.), dose: 12.5 mg/kg/injection, schedule: Q01DX011 (ip), vehicle: saline, higher = larger tumour", "result": "37 % of control"},
      {"measurement": "T/C", "setting": "endpoint: median survival time, dose: 12.5 mg/kg/injection, schedule: Q01DX011 (ip), vehicle: saline, higher = longer survival", "result": "91 % of control"}
    ]}
  ]
}
